Values joined by “and” are separate entries in the source; they are usually repeats but may differ in a detail not shown here. Equal entries are not always repeated. Values belong to the molecule of their own block, whether it stands above or below them.
Assays:
CaMKIIα derived from rat = target: T1, CaMKIIα derived from rat (Rattus norvegicus, UniProt P11275); assay: Examination of CaMKII inhibitory activity (1), phosphorylation of Autocamtide-2; format: biochemical
T1 construct: purchased Santa Cruz, Inc
Method: Test substances were dissolved in DMSO and diluted to various concentrations with a buffer solution (50 mM Tris-HCl: pH 7.5, 10 mM MgCl2, 1 mM Dithiothreitol (DTT)) (all of them are available from Nacalai Tesque, Inc.) for CaMKII reaction. CaMKIIα (final concentration 0.75 μg/ml) (Santa Cruz, Inc.) derived from rat was mixed with Autocamtide-2® (40 μM) (CALBIOCHEM Company) dissolved in CaMKII reaction buffer solution in the presence of the test substance and with CaMKII activation buffer solution (1 mMCaCl2, 1 μM calmodulin) (Nacalai Tesque, Inc.) and the reaction was started by further adding ATP (50 μM) (Nacalai Tesque, Inc.). The reaction was performed at 30° C. for five minutes and then SDS-PAGE sample buffer solution was added and the reaction was terminated by boiling for five minutes. Proteins in the reaction mixture were separated by 15% SDS-PAGE and blotted onto a PVDF membrane. Phosphorus taken in by Autocamtide-2 was reacted with an anti-phosphorylated serine/threonine antibody (Santa Cruz, Inc.) and quantified by ECL system (Amersham, Inc.) and NIH Image (downloadable from http://rsb.info.nih.gov/nih-image/).

[1] = test system: adjuvant-induced arthritis rats; assay: Adjuvant-induced arthritis, therapeutic and prophylactic model; format: in vivo, rat; conditions: Compound (I) 2.5 to 80 mg/kg
Method: The adjuvant-induced arthritis model is a representative chronic inflammation model caused in rats, and it is widely used for pharmacological evaluation of antiinflammatory drugs and antirheumatic drugs. Accordingly, effects of Compound (I) and Compound (II) were examined in both therapeutic and prophylactic model. In the therapeutic model, the difference of the volume of a hind leg before and after the dosed period was calculated to examine edema suppression effect by the drug administration and the change of edema volume was examined. In the prophylactic model, the volume of a hind paw was measured over time during the dosed period and the effect of the drug for a long term period was examined. Although the hind paw volume or the edema volume was used as the index of efficacy evaluation, the edema volume means the increment from the normal volume of the hind paw which was not sensitized with the adjuvant, and therefore, the both indices can be used as approximately the same meaning.
A liquid paraffin suspension (1 mg/200 μl) of Mycobacterium butyricum (adjuvant) was subcutaneously injected at the tarsal part of the right hind paw of SD or Lewis rats (both male, six-week old) to cause arthritis. In the therapeutic model, 0.5% methylcellulose suspension of Compound (I) or Compound (II) which was prepared so that the dose was 1 ml per 100 g body weight was orally administered once a day for consecutive five days from the 17th day after the injection of the adjuvant. An indomethacin suspension prepared in the similar way was administered as the positive control. The volume of the hind paws was measured respectively for the right and the left by water replacement method just before the administration and in five hours after the last administration and the difference in the values just before the administration and in five hours after the last administration was calculated and assumed as the change in the edema volume. In the prophylatic model, the compounds were administered once a day for consecutive 21 days after the day when the adjuvant was injected. The volume of the right and left hind paws was measured by water replacement method every other day. In the prophylactic model of Compound (II), a suspension of D-penicillamine, an antirheumatic drug, was administered in the same way as a control.

adjuvant arthritis rats = conditions: reported in Patent Documents 3, 4 and Non-Patent Documents 3 to 5; cited from earlier work
[2] = test system: mouse type III allergy reaction; conditions: reported in Patent Document 4; cited from earlier work
[3] = test system: experimental allergic encephalomyelitis mice; assay: Experimental allergic encephalomyelitis, Compound (I); format: in vivo
From the text: The severity of the condition was indicated as a score (disease score) according to the following criteria.
0.5: Slight paralysis of tail
2: Light paralysis of hind paw
3: Medium to intense paralysis of hind paw or light forelimb paralysis
4: Complete paralysis of hind paw or medium to intense paralysis of forelimb
5: Paralysis of four limbs or toward death period
In the prednisolone administered group as a positive control, prednisolone was suspended in 0.5% methylcellulose solution to prepare a liquid of 0.3 mg/ml for administration and 0.1 ml per 10 g mouse weight was orally administered. In a control group, only 0.5% methylcellulose solution was […] administered. The administration was started on the sensitization day and carried out once a day for consecutive 40 days.

[4] = test system: adjuvant-induced arthritis rats; assay: Combination effect on adjuvant-induced arthritis (Example 19); format: in vivo, rat; conditions: only methotrexate 0.060 mg/kg oral once a day 17 days
Method: Combination effect for rat adjuvant-induced arthritis was examined in the same manner as in Example 17.
The volume of the left hind paw was measured by water replacement method just before the administration and after the last administration, and AUC (the area under the curve formed by plotting the difference of the value at the time of grouping from the value of each time point during the administration period against the time) of the increased volume of the left hind paw was determined. Joint destruction of the right hind paw (injected paw) and the left hind paw (non-injection paw) can be measured by X-ray and this can be also used as the index to evaluate the combination effect.

[5] = test system: adjuvant-induced arthritis rats; assay: Combination effect on adjuvant-induced arthritis, joint destruction score by soft X-ray (Example 20); format: in vivo, rat; conditions: Compound (I) 40 mg/kg and/or methotrexate 0.06 mg/kg, maximum 12
Method: Combination effect for adjuvant-induced arthritic rats was examined in the same manner as in Example 17.
Euthanasia was carried out for all the rats by aspiration of high concentration carbon dioxide after the last administration. Both the hind paws were cut off at the middle point of […]. Both the hind paws were fixed with 10% neutral buffered formalin liquid. […] The degree of joint destruction was recorded with a score. Observed sites were three points of the tibia, calcaneum and tarsal bone, and the possible maximum score was 12.
1: Minimum destruction of joints and bones and new formation of cartilages
2: Mild destruction of joints and bones and new formation and light ossification of cartilages
3: Moderate destruction of joints and bones and ossification
4: Severe destruction and deformation of joints and bones and intense ossification

T1 sequence (P11275 whole entry): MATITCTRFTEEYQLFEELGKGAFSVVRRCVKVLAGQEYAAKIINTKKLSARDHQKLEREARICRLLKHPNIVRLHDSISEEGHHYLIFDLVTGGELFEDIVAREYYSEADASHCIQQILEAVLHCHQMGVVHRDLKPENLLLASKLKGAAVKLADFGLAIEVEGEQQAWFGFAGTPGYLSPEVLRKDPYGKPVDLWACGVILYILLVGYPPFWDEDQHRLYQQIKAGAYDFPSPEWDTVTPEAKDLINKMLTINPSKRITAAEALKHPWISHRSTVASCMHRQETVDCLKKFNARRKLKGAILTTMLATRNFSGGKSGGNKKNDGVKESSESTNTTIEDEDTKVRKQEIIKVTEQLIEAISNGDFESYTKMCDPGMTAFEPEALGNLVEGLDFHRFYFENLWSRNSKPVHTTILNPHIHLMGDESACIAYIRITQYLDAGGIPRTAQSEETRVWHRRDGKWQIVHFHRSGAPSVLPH

SMILES: CNc1nc(C(C)c2ccc(-c3ccccc3)c(F)c2)cs1 (stereo not shown) [Compound (II), 4-[1-(2-fluorobiphenyl-4-yl)ethyl]-2-(methylamino)thiazole]
Inhibition rate (%) (CaMKIIα derived from rat; Concentration 0.1 μm): 45% | Inhibition rate (%) (CaMKIIα derived from rat; Concentration 1 μm): 62% | Inhibition rate (%) (CaMKIIα derived from rat; Concentration 10 μm): 92% | hind paw volume / edema volume ([1]; prophylactic model, oral once a day for 21 days, Compound (II) 50 mg/kg, FIGS. 8 and 9): remarkable edema suppressing effect | change of edema volume of hind paw ([1]; therapeutic model, oral once a day for five days from 17th day, Compound (II) 10 to 50 mg/kg, FIGS. 6 and 7): remarkable edema suppressing effect | effects on adjuvant arthritis rats (adjuvant arthritis rats): anti-arthritis effects | edema in mouse type III allergy reaction tests [2]: inhibitory effects on edema

SMILES: C[C@]12C=CC(=O)C=C1CC[C@@H]1[C@@H]2[C@@H](O)C[C@@]2(C)[C@H]1CC[C@]2(O)C(=O)CO [Prednisolone, prednisolone, reference compound]
weight gain (natural accruement of weight by growth) ([3]; Compound (I) 20 to 80 mg/kg, prednisolone 3 mg/kg, oral once a day 40 days, FIG. 14): strongly suppressed natural accruement of weight by growth | Death Rate ([3]; Dose 3 mg/kg oral once a day 40 days): 0/10 | Onset Rate ([3]; Dose 3 mg/kg oral once a day 40 days, 3 mg/kg): 2 of 10 and 2/10

SMILES: CN(Cc1cnc2nc(N)nc(N)c2n1)c1ccc(C(=O)N[C@@H](CCC(=O)O)C(=O)O)cc1 [methotrexate, reference compound]
increased volume and onset ratio of left hind paw [4]: onset suppressing effect and edema suppressing effect | joint destruction score of the left hind paw, representative individual which showed an average score in the group ([5]; control score 3): 2 | joint destruction score of the right hind paw, representative individual which showed an average score in the group ([5]; control score 10): 9

Further lines, results first:

Inhibition rate (%) (CaMKIIα derived from rat; Concentration 0.1 μm): 13% | Inhibition rate (%) (CaMKIIα derived from rat; Concentration 1 μm): 42% | Inhibition rate (%) (CaMKIIα derived from rat; Concentration 10 μm): 71%
SMILES: CC(c1ccc(-c2ccccc2)c(F)c1)c1cc(/N=C(/N)N(C)C)on1.Cl (stereo not shown) [Compound (Ib), N′-{3-[1-(2-fluorobiphenyl-4-yl)-ethyl]-isoxazol-5-yl}-N,N-dimethyl-guanidine hydrochloride]

Inhibition rate (%) (CaMKIIα derived from rat; Concentration 0.1 μm): 11% | Inhibition rate (%) (CaMKIIα derived from rat; Concentration 1 μm): 36% | Inhibition rate (%) (CaMKIIα derived from rat; Concentration 10 μm): 68%
SMILES: CCN/C(N)=N/c1cc(C(C)c2ccc(-c3ccccc3)c(F)c2)no1.Cl (stereo not shown) [Compound (Ic), N-ethyl-N′-{3-[1-(2-fluorobiphenyl-4-yl)-ethyl]-isoxazol-5-yl}-guanidine hydrochloride]

Reference: patent US20080255121A1, “Combination Drug for Treating Autoimmune Disease” (DAINIPPON SUMITOMO PHARMA CO., LTD., priority 2004, published 2008)
